Assay [1] has as its system RED STAR Ethanol Red yeast. Put plainly: Fermentation of enzyme-detoxified fuwPCS filtrate at 37° C., Example 2. As to conditions: detoxified 19 hours. The assay is classed as cell-based. The procedure:
Dilute acid steam exploded corn stover (PCS) was diluted with water and adjusted to pH 5.0 with NH4OH. The total solids (TS) level was 16%. This sample was then saccharified for 72 hours at 50° C. with Cellulolytic Preparation A. Penicillin and citrate buffer were also added prior to saccharification. Following the saccharification step, the sample was filtered to remove the solids and the filtrate was used for fermentation. The fuwPCS was then pipetted into separate sterile, 15 mL conical centrifuge tubes containing a small CO2 vent hole.
Freeze-dried RED STAR™ Ethanol Red yeast was re-hydrated in 10×YP media for 30 minutes at 32° C. it was dosed into the fermentations at a dose of 0.2 g/L.
Filtered, unwashed PCS was detoxified for 19 hours using the optimal conditions for each enzyme. For amidase, the pH of the fuwPCS was first adjusted up to 7.0 using NaOH, the amidase was added at the tested dosages, and the tubes were incubated at 37° C. The pH of the fuwPCS was then readjusted to 5.0 using H2SO4 prior to fermentation. For the carbonic anhydrase the pH was left at 5.0, the enzyme was added and the tubes were incubated at 37° C. All enzymes were diluted with de-ionized water prior to dosing. Dosing ranges for each enzyme were as follows in units/mL of the final solution for amidase and kilo units/mL for carbonic anhydrase.
A total of 3.5 grams of sample was fermented for each treatment and the initial pH for all fermentations was 5.0. Treatments were run in triplicate. The final TS level was 13.7 wt.-%. These fermentations were run at a higher temperature of 37° C.
Fermentation samples were collected after 12 and 24 hours and analyzed for ethanol using an Agilent HPLC System with an analytical BIO-RAD Aminex HPX-87H column and a BIO-RAD Cation-H refill guard column.

Assay [2] deals with RED STAR Ethanol Red yeast. Put plainly: Fermentation of detoxified fully unwashed pretreated corn stover (fuwPCS) filtrate, Example 1. In kind it is cell-based. To be noted: for average ethanol yield: 24 hours fermentation, 0.2 g/L yeast, 32° C., pH 5.0. The method, then: Yeast Preparation: Freeze-dried RED STAR™ Ethanol Red yeast re-hydrated in 10×YP media for 30 minutes at 32° C. It was dosed into the fermentations at a dose of 0.2 g/L.
Dilute acid steam exploded corn stover (PCS) was diluted with water and adjusted to pH 5.0 with NH4OH. The total solids (TS) level was 15 wt.-%. This sample was then saccharified for 63 hours at 50° C. with Cellutolytic Preparation A. Penicillin was added at a rate of 1 gl/L also added prior to saccharification was citrate buffer at a rate of 50 mL of 1 M citrate buffer per 100 ml of substrate. Following the saccharification step, the sample was filtered via a 0.2 micron Nalgene vacuum fitter system (Product # 8-000043-0803) to remove the solids and used for fermentation. The fuwPCS was then pipetted into separate sterile, 15 mL conical centrifuge tubes containing a small CO2 vent hole.
The pH was adjusted to about 2 using H2SO4; gallic acid was dosed at concentrations of 2 mM (GaA-L) and at 10 mM (GaA-H). The gallic acid was prepared by sonicating […] of garlic acid in 100 ml of de-ionized water. The broth was allowed to stand at 20° C. overnight and then readjusted to pH 5 using NaOH before adding yeast.
The dosing for amidase was carried out by treating with 5.6 Units/5 g substrate (AMD-L) and also 56 Units/5 g substrate (AMD-H). The amidase treated samples were brought to a pH of 7 with NaOH and allowed to sit in an oven at a temperature of 37° C. for 18 hours as a pre-treatment.
Fermentations were carried out in sterile 15 mL conical plastic centrifuge tubes at 32° C. for 48 hours at pH 5.0. A total of 5 grams of sample was fermented for each treatment. Treatments were run in triplicate.
Fermentation samples were collected after 24 hours for the 0.2 g/L yeast dose and analyzed for acetic acid and ethanol using an Agilent HPLC System with an analytical BIO-RAD Aminex HPX-87H column and a BIO-RAD Cation H refill guard column.

“Also recorded” adds a separate entry of the source.

We go through 3 compounds from patent publication US20080171370A1, “DETOXIFYING PRE-TREATED LIGNOCELLULOSE-CONTAINING MATERIALS” (Novozymes North America, Inc., priority 2006, published 2008).

As for “carbonic anhydrase: carbonic anhydrase from bovine erythrocytes (lyophilized powder, ≧2,500 W-A units/mg protein) Sigma Product # C3934”, the “effect on ethanol production by the yeast” value in assay [1] (highest dose of carbonic anhydrase (33.3; 243 kilo units/g TS), pH 5.0, 37° C., after 12 hours of fermentation) is “boost in ethanol production; also recorded: significant boosting effects”; in assay [1] (highest dose of carbonic anhydrase (33.3; 243 kilo units/g TS), pH 5.0, 37° C., after 24 hours of fermentation), “significant boosting effects”.
As to `O=C(O)c1cc(O)c(O)c(O)c1` [Gallic acid, 3,4,5-trihydroxybenzoic acid], the average ethanol yield turned out to be 17.8 g/L in assay [2] (gallic acid high dose (GaA-H) 10 mM, pH about 2, 20° C. overnight) and 19.4 g/L in assay [2] (gallic acid low dose (GaA-L) 2 mM, pH about 2, 20° C. overnight). The “amount of acetic acid present in the fermentation” value in assay [2] (gallic acid versus control, FIG. 2) was “significant drop”.
Consider “amidase: amidase from Pseudomonas aeruginosa (Sigma Product # A6691)”, for which the average ethanol yield in assay [2] (amidase high dose (AMD-H) 56 Units/5 g substrate, pre-treatment pH 7, 37° C., 18 hours) worked out at 23.6 g/L; in assay [2] (amidase low dose (AMD-L) 5.6 Units/5 g substrate, pre-treatment pH 7, 37° C., 18 hours), 21.8 g/L. Moreover, the “effect on ethanol production by the yeast” value is on record as “significant boosting effect” in assay [1] (all amidase doses tested (0.3-1.1-5.4-16.1), pH 7.0, 37° C., after 12 hours of fermentation) and “boost in ethanol yield; also recorded: significant boosting effect” in assay [1] (all amidase doses tested (0.3-1.1-5.4-16.1), pH 7.0, 37° C., after 24 hours of fermentation).
